# Values of other authors as cited in US20080254114A1, “Controlled Release Compositions Comprising Heterocyclic Amide Derivative Nanoparticles” (Elan Corporation plc, priority 2005, published 2008).
# How the values were obtained:
# [1] = administration with food; high fat meal and high protein meal, two separate studies
# [2] = test system: LTD4; conditions: inhaled LTD4
# [3] = test system: airway responses to antigen; conditions: sensitized sheep, inhalational challenge
# [4] = test system: leukotrienes (LTC4, LTD4 and LTE4); conditions: conducting airway smooth muscle, in vitro
# [5] = test system: bronchoconstriction
smiles,measurement,setting,value
"COc1cc(C(=O)NS(=O)(=O)c2ccccc2C)ccc1Cc1cn(C)c2ccc(NC(=O)OC3CCCC3)cc12 [Zafirlukast, 4-(5-cyclopentyloxy-carbonylamino-1-methyl-indol-3-ylmethyl)-3-methoxy-N-o-tolylsulfonylbenzamide]",reduction of mean bioavailability by food,[1],approximately 40%
same,LTD4-induced influx of eosinophils into animal lungs,[2],inhibited
same,"airway responses to antigen (early- and late-phase response, nonspecific hyperresponsiveness)",[3],suppressed
same,"contractile activity of LTC4, LTD4 and LTE4",[4],antagonized
same,solubility in acetone,acetone,freely soluble
same,solubility in dimethyl-sulfoxide,dimethyl-sulfoxide,freely soluble
same,solubility in methanol,methanol,slightly soluble
same,solubility in tetrahydrofuran,tetrahydrofuran,freely soluble
same,solubility in water,water,practically insoluble
same,increase in bronchial hyperresponsiveness to inhaled histamine,[5]; following inhaled allergen challenge,attenuated
same,"early- and late-phase reaction caused by inhalation of antigens (grass, cat dander, ragweed, mixed antigens)","[5]; patients with asthma, pretreatment with single doses",attenuated
same,bronchoconstriction caused by sulfur dioxide and cold air,"[5]; patients with asthma, pretreatment with single oral doses",inhibited
